In general, Ki refers to the equilibrium dissociation constant of an inhibitor or competing ligand from its target.

This assay addresses T1, hCRTH2 (Homo sapiens, UniProt Q9Y5Y4).
T1 construct: expressed in transfected cells; host or cells: HEK (human embryonic kidney) cells expressing hCRTH2; membrane preparation
T1 sequence (Q9Y5Y4 1-395): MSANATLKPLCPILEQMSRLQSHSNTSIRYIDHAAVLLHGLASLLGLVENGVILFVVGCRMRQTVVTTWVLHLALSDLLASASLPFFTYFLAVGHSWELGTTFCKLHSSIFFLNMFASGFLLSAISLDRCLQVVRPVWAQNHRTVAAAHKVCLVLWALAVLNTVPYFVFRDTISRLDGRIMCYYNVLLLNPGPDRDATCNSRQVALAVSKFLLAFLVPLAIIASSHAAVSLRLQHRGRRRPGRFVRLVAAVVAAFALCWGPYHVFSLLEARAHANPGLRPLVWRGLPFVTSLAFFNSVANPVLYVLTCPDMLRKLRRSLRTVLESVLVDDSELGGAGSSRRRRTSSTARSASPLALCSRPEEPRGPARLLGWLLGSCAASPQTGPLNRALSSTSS
Briefly: Radioligand binding assay ([3H]PGD2 competition, HEK-hCRTH2 membranes). As to conditions: [3H]PGD2 binding, rated A-E (Table A). The protocol:
Biological Assays Radioligand Binding Assay.
Radioligand binding assays were performed at room temperature in 50 mM Tris-HCl pH 7.4, 1 mM EDTA containing 2 mM MnCl2 and 3.0 nM [^3H]PGD2 (New England Nuclear, Boston, Mass.) (171 Ci mmol^−1), in a final volume of 0.2 mL. Competing ligands were diluted in dimethylsulfoxide (Me2SO) that was kept constant at 1% (v/v) of the final incubation volume. The reaction was initiated by the addition of 8-20 μg of membrane protein prepared from a human embryonic kidney (HEK)-hCRTH2 cell line. Total and non-specific binding were determined in the absence and the presence of 10 μM PGD2, respectively. […] The reaction was routinely conducted for 60 min at room temperature and terminated by rapid filtration through prewetted (0.3% polyethyleneimine) 96-well printed Filtermate™ (Wallac) using a Tomtec® harvester (Hamden, Conn.). After washing with cold buffer, the filter was dried for 2 minutes in microwave, and Meltilex Scintillator sheet (Wallac) was melted on for 2 min. The radioactivity was measured with Betaplate model 1205 (Wallac).

In turn, `C[C@@H](NC(=O)c1ccc2nc(-c3ccc(Cl)cc3)c(CC3CCC(C(=O)O)C3)nc2c1)c1ccc(F)cc1` (mixture of isomers) [compound 28, 3-((3-(4-chlorophenyl)-7-((R)-1-(4-fluorophenyl)ethylcarbamoyl)quinoxalin-2-yl)methyl)cyclopentanecarboxylic acid] displayed an inhibitory constant (Ki) of 2.1 to 20 nM.
`O=C(N[C@@H]1CCCc2ccccc21)c1ccc2nc(-c3ccccc3)c(CCCC(F)C(=O)O)nc2c1` (mixture of isomers) [compound 38, 2-fluoro-5-(3-phenyl-7-(((R)-1,2,3,4-tetrahydronaphthalen-1-yl)carbamoyl)quinoxalin-2-yl)pentanoic acid] showed a Ki of 20.1 to 200 nM.
Then `CC(NC(=O)c1ccc2nc(-c3ccc(C(F)(F)F)cc3)c(CCCCC(=O)O)nc2c1)c1ccc(-c2ccccc2)cc1` (racemic) [4E, 7-[[(1-[1,1′-biphenyl]-4-ylethyl)amino]carbonyl]-3-[4-(trifluoromethyl)-phenyl]-2-quinoxaline-pentanoic acid], with 0.1 to 2 nM; and `CC(NC(=O)c1ccc2nc(-c3ccc(C(F)(F)F)cc3)c(CCCCC(=O)O)nc2c1)c1ccc(-c2ccccc2)cc1` (single isomer, unassigned) [4F, 7-[[(1-[1,1′-biphenyl]-4-ylethyl)amino]carbonyl]-3-[4-(trifluoromethyl)-phenyl]-2-quinoxaline-pentanoic acid], with 2.1 to 20 nM.
Compound `CC(NC(=O)c1ccc2nc(-c3ccc(C(F)(F)F)cc3)c(CCCCC(=O)O)nc2c1)c1ccc(-c2ccccc2)cc1` (single isomer, unassigned) [4G, 7-[[(1-[1,1′-biphenyl]-4-ylethyl)amino]carbonyl]-3-[4-(trifluoromethyl)-phenyl]-2-quinoxaline-pentanoic acid] had a Ki of 2.1 to 20 nM.
The figure for `O=C(O)C1CC1CCc1nc2cc(C(=O)N3CCC(c4ccccc4)CC3)ccc2nc1-c1ccccc1` (single isomer, unassigned) [20F, 2-(2-(3-phenyl-7-(4-phenylpiperidine-1-carbonyl)quinoxaline-2-yl)ethyl)cyclopropanecarboxylic acid] is 2.1 to 20 nM.
Then `O=C(O)C1CC1CCc1nc2cc(C(=O)N3CCC(c4ccccc4)CC3)ccc2nc1-c1ccccc1` (single isomer, unassigned) [20G, 2-(2-(3-phenyl-7-(4-phenylpiperidine-1-carbonyl)quinoxaline-2-yl)ethyl)cyclopropanecarboxylic acid], with 2.1 to 20 nM.
In turn, `O=C(O)C1CC1CCc1nc2cc(C(=O)N3CCC(c4ccccc4)CC3)ccc2nc1-c1ccccc1` (single isomer, unassigned) [20H, 2-(2-(3-phenyl-7-(4-phenylpiperidine-1-carbonyl)quinoxaline-2-yl)ethyl)cyclopropanecarboxylic acid] showed an inhibitory constant (Ki) of 2.1 to 20 nM.
Compound `O=C(N[C@@H]1CCCc2ccccc21)c1ccc2nc(-c3ccccc3)c(CCCC(F)C(=O)O)nc2c1` (single isomer, unassigned) [38A] registered an inhibition constant Ki of 20.1 to 200 nM.
The figure for `O=C(N[C@@H]1CCCc2ccccc21)c1ccc2nc(-c3ccccc3)c(CCCC(F)C(=O)O)nc2c1` (single isomer, unassigned) [38B] is 20.1 to 200 nM; for `O=C(O)C1CC1CCc1nc2cc(C(=O)N3CCC(c4ccccc4)CC3)ccc2nc1-c1ccccc1` (single isomer, unassigned) [compound 20, 2-(2-(3-phenyl-7-(4-phenylpiperidine-1-carbonyl)quinoxaline-2-yl)ethyl)cyclopropanecarboxylic acid] it is 20.1 to 200 nM; for `CC(NC(=O)c1ccc2nc(-c3ccc(Cl)cc3)c(CCCCC(=O)O)nc2c1)c1ccccn1` (stereo in doubt) [16AA, 3-(4-chlorophenyl)-7-[[[1(S)-(2-pyridinyl)ethyl]amino]carbonyl]-2-quinoxalinepentanoic acid] it is 0.1 to 2 nM.

(Values after patent US9469615B2, “Quinoxalines and AZA-quinoxalines as CRTH2 receptor modulators” (Merck Sharp & Dohme Corp., priority 2010, dated 2016).)
